Among the data in patent US20260347353A1, “INDOLIZINE DERIVATIVES FOR TREATING CANCER” (Antares Therapeutics, Inc., priority 2022, published 2026) are IC50, Kd and AC50 values, retold here.

Where only a bound is given, the exact number is not on record here.

One experiment deals with NUGC3 cells (p53 Y220C). The experiment can be described thus: Cell Proliferation Assay (CellTiter-Glo), NUGC3 p53 Y220C. Type of experiment: cell-based. The settings on record: Homo sapiens, NUGC-3, 120 h, 5 days, read-out: CTG NUGC3 P53 Y220C IC50. In short, it runs like this:
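Seeded at 250–500 cells/well, then compound-treated for 5 days; the NCIH1299 lines carry Tet-One inducible p53 Y220C or R273H transduced lentivirally. Viability by CellTiter-Glo luminescence after 10 min at room temperature; IC50 calculated.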

The target in experiment [1] is T1, p53 Y220C mutant protein (amino acid residues 94-293) (Homo sapiens, UniProt P04637, Y220C).
T1 construct: p53 Y220C mutant protein (amino acid residues 94-293)
The experiment can be described thus: Surface Plasmon Resonance (SPR) assay, p53 Y220C Kd_kinetic. The settings on record: multi-cycle kinetics, 16 or 20 °C, pH 7.5, 1:1 binding model. In short, it runs like this:
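Kd from multi-cycle SPR kinetics fitted to a 1:1 model, using 2-fold, 7-point compound series over p53 Y220C (residues 94-293). Flow 30 μL/min, 60 s association, 120 s dissociation, at 16 or 20 °C in 50 mM Tris pH 7.5, 100 mM NaCl, 1 mM DTT, 0.01% Brij35, 0.05% Tween-20, 1% DMSO.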

Experiment [2] concerns NCIH1299-inducible p53 Y220C cells. In words: Cell Proliferation Assay (CellTiter-Glo), NCIH1299-inducible p53 Y220C. Format: cell-based. The conditions noted are these: Homo sapiens, NCI-H1299, 120 h, 5 days, read-out: CTG H1299 P53 Y220C IC50. The protocol:
Inducible p53 Y220C and R273H constructs (Tet-One inducible expression system; Takara) were stably expressed in NCIH1299 cells by lentiviral transduction. NUGC3, A549, BxPC3, T3M4, HuH7, HCC2935, MFE296, NCIH1299, NCIH1299-inducible p53 Y220C, and NCIH1299-inducible p53 R273H cell lines were used for cell proliferation assay. 250-500 cells were seeded in each well of 384 plate and then compounds were dispensed into each well using Echo or Tecan. After 5 days of incubation, equal volume of CellTiter-Glo reagent (G7570; Promega) was added into each well and the plate was incubated at room temperature for 10 minutes with shaking. The luminescent signal was measured by PheraStar microplate reader and IC50 was calculated.

The target in another experiment is p53 Y220C (Homo sapiens, UniProt P04637, Y220C). The experiment can be described thus: Luciferase Reporter Assay, p53 Y220C (NCIH1299 cells with inducible p53 Y220C and p53 response element-luciferase). The settings on record: 6 hour compound treatment, read-out: Luc P53 Y220C AC50. Format: cell-based. In short, it runs like this:
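NCI-H1299 cells stably carrying a p53 response element-luciferase reporter and Tet-inducible p53 Y220C were induced with 0.5 ug/mL doxycycline for 24 h, then treated with compound for 6 h. Luminescence was read after One-Glo addition. AC50 was derived relative to 10 uM tool compound as positive control.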

T1 sequence (P04637 94-293, stated change not applied): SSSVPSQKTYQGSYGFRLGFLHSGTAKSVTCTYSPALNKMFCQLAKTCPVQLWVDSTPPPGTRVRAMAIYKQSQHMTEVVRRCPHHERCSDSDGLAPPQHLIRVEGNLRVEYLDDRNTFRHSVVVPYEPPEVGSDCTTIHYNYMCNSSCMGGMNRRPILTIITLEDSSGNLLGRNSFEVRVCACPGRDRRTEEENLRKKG

`CN1CC[C@@H](Nc2cccn3c(SC(F)(F)F)c(-c4noc(CNC(=O)C5COC5)n4)cc23)[C@@H](F)C1` [Example 25, N-{[3-(8-{[(3S,4R)-3-fluoro-1-methylpiperidin-4-yl]amino}-3-[(trifluoromethyl)sulfanyl]indolizin-2-yl)-1,2,4-oxadiazol-5-yl]methyl}oxetane-3-carboxamide]: the IC50 (in the experiment with NUGC3 cells (p53 Y220C); in experiment [2]) was 1500 to 3000 nM in each case. In experiment [1], this compound showed a Kd of less than 10 nM. The AC50 at p53 Y220C was 1500 to 3000 nM.

On to `COC1(C(=O)NCc2nc(-c3cc4c(N[C@@H]5CCN(C)C[C@@H]5F)cccn4c3SC(F)(F)F)no2)CC1` [Example 26, N-{[3-(8-{[(3S,4R)-3-fluoro-1-methylpiperidin-4-yl]amino}-3-[(trifluoromethyl)sulfanyl]indolizin-2-yl)-1,2,4-oxadiazol-5-yl]methyl}-1-methoxycyclopropane-1-carboxamide], for which the IC50 (in the experiment with NUGC3 cells (p53 Y220C); in experiment [2]) was 1500 to 3000 nM throughout. The dissociation constant Kd in experiment [1] was 10 to 100 nM. The AC50 at p53 Y220C is 1500 to 3000 nM.

As for `CN1CC[C@@H](Nc2cccn3c(SC(F)(F)F)c(-c4noc(CNC(=O)c5ccns5)n4)cc23)[C@@H](F)C1` [Example 27, N-{[3-(8-{[(3S,4R)-3-fluoro-1-methylpiperidin-4-yl]amino}-3-[(trifluoromethyl)sulfanyl]indolizin-2-yl)-1,2,4-oxadiazol-5-yl]methyl}-1,2-thiazole-5-carboxamide], the IC50 with NUGC3 cells (p53 Y220C) is less than 750 nM; in experiment [2], 750 to 1500 nM. In experiment [1], this compound returned a Kd of less than 10 nM. At p53 Y220C, the AC50 is less than 750 nM.

Take `CN1CC[C@@H](Nc2cccn3c(SC(F)(F)F)c(-c4noc(CNC(=O)[C@H]5COCCO5)n4)cc23)[C@@H](F)C1` [Example 29]: the IC50 (with NUGC3 cells (p53 Y220C); in experiment [2]) was 750 to 1500 nM each time. Also, in experiment [1], the Kd was less than 10 nM. Besides, the half-maximal activity concentration (AC50) at p53 Y220C was in the range of 750 to 1500 nM.

In the case of `Cc1ccsc1C(=O)NCc1nc(-c2cc3c(N[C@@H]4CCN(C)C[C@@H]4F)cccn3c2SC(F)(F)F)no1` [Example 30, N-{[3-(8-{[(3S,4R)-3-fluoro-1-methylpiperidin-4-yl]amino}-3-[(trifluoromethyl)sulfanyl]indolizin-2-yl)-1,2,4-oxadiazol-5-yl]methyl}-3-methylthiophene-2-carboxamide], the IC50 (in the experiment on NUGC3 cells (p53 Y220C); in experiment [2]) was 1500 to 3000 nM throughout. This compound had a Kd in experiment [1] of 10 to 100 nM. In addition, at p53 Y220C, the AC50 lay in the range of 750 to 1500 nM.

With `CN1CC[C@@H](Nc2cccn3c(SC(F)(F)F)c(-c4noc(CNC(=O)C#CC5(C)CC5)n4)cc23)[C@@H](F)C1` [Example 31, N-{[3-(8-{[(3S,4R)-3-fluoro-1-methylpiperidin-4-yl]amino}-3-[(trifluoromethyl)sulfanyl]indolizin-2-yl)-1,2,4-oxadiazol-5-yl]methyl}-3-(1-methylcyclopropyl)prop-2-ynamide], the half-inhibitory concentration (IC50) (with NUGC3 cells (p53 Y220C); in experiment [2]) was less than 750 nM each time. For the same compound, in experiment [1], the Kd was less than 10 nM. In addition, the AC50 at p53 Y220C was less than 750 nM.

Regarding `CN1CC[C@@H](Nc2cccn3c(SC(F)(F)F)c(-c4noc(CNC(=O)c5sccc5F)n4)cc23)[C@@H](F)C1` [Example 32, 3-fluoro-N-{[3-(8-{[(3S,4R)-3-fluoro-1-methylpiperidin-4-yl]amino}-3-[(trifluoromethyl)sulfanyl]indolizin-2-yl)-1,2,4-oxadiazol-5-yl]methyl}thiophene-2-carboxamide], the IC50 (with NUGC3 cells (p53 Y220C); in experiment [2]) was less than 750 nM throughout. This compound had a Kd in experiment [1] of less than 10 nM. Further, the AC50 at p53 Y220C is less than 750 nM.

Take `CN1CC[C@@H](Nc2cccn3c(SC(F)(F)F)c(-c4noc(CNC(=O)c5sccc5N)n4)cc23)[C@@H](F)C1` [Example 33, 3-amino-N-{[3-(8-{[(3S,4R)-3-fluoro-1-methylpiperidin-4-yl]amino}-3-[(trifluoromethyl)sulfanyl]indolizin-2-yl)-1,2,4-oxadiazol-5-yl]methyl}thiophene-2-carboxamide]: the half-inhibitory concentration (IC50) (in the experiment on NUGC3 cells (p53 Y220C); in experiment [2]) was less than 750 nM throughout. The Kd in experiment [1] was less than 10 nM. Also, the AC50 at p53 Y220C was less than 750 nM.

As to `COc1ccc2nc(C(=O)NCc3nc(-c4cc5c(N[C@@H]6CCN(C)C[C@@H]6F)cccn5c4SC(F)(F)F)no3)ccc2c1` [Example 34, N-{[3-(8-{[(3S,4R)-3-fluoro-1-methylpiperidin-4-yl]amino}-3-[(trifluoromethyl)sulfanyl]indolizin-2-yl)-1,2,4-oxadiazol-5-yl]methyl}-6-methoxyquinoline-2-carboxamide], the IC50 (in the experiment with NUGC3 cells (p53 Y220C); in experiment [2]) was 1500 to 3000 nM throughout. This compound had a Kd in experiment [1] of 10 to 100 nM. Further, the concentration at half-maximal activity (AC50) on p53 Y220C was not below 3000 nM.

On to `COc1ccc2cc(C(=O)NCc3nc(-c4cc5c(N[C@@H]6CCN(C)C[C@@H]6F)cccn5c4SC(F)(F)F)no3)n(C)c2c1` [Example 35, N-{[3-(8-{[(3S,4R)-3-fluoro-1-methylpiperidin-4-yl]amino}-3-[(trifluoromethyl)sulfanyl]indolizin-2-yl)-1,2,4-oxadiazol-5-yl]methyl}-6-methoxy-1-methylindole-2-carboxamide], for which the IC50 (in the experiment with NUGC3 cells (p53 Y220C); in experiment [2]) was 1500 to 3000 nM throughout. Besides, in experiment [1], the Kd lay in the range of 10 to 100 nM. Further, the AC50 on p53 Y220C is not below 3000 nM.

As for `CN1CC[C@@H](Nc2cccn3c(SC(F)(F)F)c(-c4noc(CNC(=O)C5(F)CCOCC5)n4)cc23)[C@@H](F)C1` [Example 36, 4-fluoro-N-{[3-(8-{[(3S,4R)-3-fluoro-1-methylpiperidin-4-yl]amino}-3-[(trifluoromethyl)sulfanyl]indolizin-2-yl)-1,2,4-oxadiazol-5-yl]methyl}oxane-4-carboxamide], the IC50 (with NUGC3 cells (p53 Y220C); in experiment [2]) was 1500 to 3000 nM in each case. The compound also displayed a Kd in experiment [1] of 10 to 100 nM. At p53 Y220C, the concentration at half-maximal activity (AC50) lay in the range of 1500 to 3000 nM.

Consider `COc1csc(C(=O)NCc2nc(-c3cc4c(N[C@@H]5CCN(C)C[C@@H]5F)cccn4c3SC(F)(F)F)no2)c1` [Example 37, N-{[3-(8-{[(3S,4R)-3-fluoro-1-methylpiperidin-4-yl]amino}-3-[(trifluoromethyl)sulfanyl]indolizin-2-yl)-1,2,4-oxadiazol-5-yl]methyl}-4-methoxythiophene-2-carboxamide], for which the IC50 (in the experiment on NUGC3 cells (p53 Y220C); in experiment [2]) was less than 750 nM each time. Moreover, the Kd in experiment [1] was less than 10 nM. Besides, the half-maximal activity concentration (AC50) on p53 Y220C is less than 750 nM.

`CN1CC[C@@H](Nc2cccn3c(SC(F)(F)F)c(-c4noc(CNC(=O)c5cc(C#N)cs5)n4)cc23)[C@@H](F)C1` [Example 38, 4-cyano-N-{[3-(8-{[(3S,4R)-3-fluoro-1-methylpiperidin-4-yl]amino}-3-[(trifluoromethyl)sulfanyl]indolizin-2-yl)-1,2,4-oxadiazol-5-yl]methyl}thiophene-2-carboxamide]: the IC50 (with NUGC3 cells (p53 Y220C); in experiment [2]) was less than 750 nM throughout. The compound also displayed a Kd in experiment [1] of 10 to 100 nM. In addition, on p53 Y220C, the AC50 fell in the range of 750 to 1500 nM.

With `CN1CC[C@@H](Nc2cccn3c(SC(F)(F)F)c(-c4noc(CNC(=O)c5ccc(C#N)s5)n4)cc23)[C@@H](F)C1` [Example 39, 5-cyano-N-{[3-(8-{[(3S,4R)-3-fluoro-1-methylpiperidin-4-yl]amino}-3-[(trifluoromethyl)sulfanyl]indolizin-2-yl)-1,2,4-oxadiazol-5-yl]methyl}thiophene-2-carboxamide], the IC50 (in the experiment on NUGC3 cells (p53 Y220C); in experiment [2]) was less than 750 nM throughout. The Kd in experiment [1] fell in the range of 10 to 100 nM. In addition, the AC50 at p53 Y220C fell in the range of 750 to 1500 nM.

Regarding `CN1CC[C@@H](Nc2cccn3c(SC(F)(F)F)c(-c4noc(CNC(=O)c5ccc6ncsc6c5)n4)cc23)[C@@H](F)C1` [Example 40, N-{[3-(8-{[(3S,4R)-3-fluoro-1-methylpiperidin-4-yl]amino}-3-[(trifluoromethyl)sulfanyl]indolizin-2-yl)-1,2,4-oxadiazol-5-yl]methyl}-1,3-benzothiazole-6-carboxamide], the half-maximal inhibitory concentration (IC50) (with NUGC3 cells (p53 Y220C); in experiment [2]) was less than 750 nM in each case. This compound also registered a Kd in experiment [1] of 10 to 100 nM. On p53 Y220C, the AC50 was less than 750 nM.

Consider `CN1CC[C@@H](Nc2cccn3c(SC(F)(F)F)c(-c4noc(CNC(=O)c5sccc5OC(F)F)n4)cc23)[C@@H](F)C1` [Example 41, 3-(difluoromethoxy)-N-{[3-(8-{[(3S,4R)-3-fluoro-1-methylpiperidin-4-yl]amino}-3-[(trifluoromethyl)sulfanyl]indolizin-2-yl)-1,2,4-oxadiazol-5-yl]methyl}thiophene-2-carboxamide], for which the IC50 (in the experiment with NUGC3 cells (p53 Y220C); in experiment [2]) was 750 to 1500 nM in each case. In experiment [1], the Kd fell in the range of 10 to 100 nM. Also, the AC50 at p53 Y220C is 750 to 1500 nM.
